According to patent publication US8153593B2, “Transglutaminase inhibitors and methods of use thereof” (The Board of Trustees of the Leland Stanford Junior …, priority 2003, dated 2012):
Values belong to the molecule of their own block, whether it stands above or below them. *1 amine or outer side, *2 acyl side, *3 side chain or, on linkers, in order; H or OH if unused. Where a SMILES comes first, the peptide text is derived from it. [ ]: non-standard residue; d: D form. X2 = [N-]=[N+]=CC(=O)CC[C@@H](N[*:1])C(=O)[*:2]; DON = [N-]=[N+]=CC(=O)CC[C@H](N)C(=O)O

Tests used:
[1] = molecular target: T1, human TG2 (Homo sapiens, UniProt P21980); test: TG2 inhibition kinetics by the method of Hausch et al.; type: biochemical; design: ki/KI: unit not given here
T1 sequence (P21980 1-687): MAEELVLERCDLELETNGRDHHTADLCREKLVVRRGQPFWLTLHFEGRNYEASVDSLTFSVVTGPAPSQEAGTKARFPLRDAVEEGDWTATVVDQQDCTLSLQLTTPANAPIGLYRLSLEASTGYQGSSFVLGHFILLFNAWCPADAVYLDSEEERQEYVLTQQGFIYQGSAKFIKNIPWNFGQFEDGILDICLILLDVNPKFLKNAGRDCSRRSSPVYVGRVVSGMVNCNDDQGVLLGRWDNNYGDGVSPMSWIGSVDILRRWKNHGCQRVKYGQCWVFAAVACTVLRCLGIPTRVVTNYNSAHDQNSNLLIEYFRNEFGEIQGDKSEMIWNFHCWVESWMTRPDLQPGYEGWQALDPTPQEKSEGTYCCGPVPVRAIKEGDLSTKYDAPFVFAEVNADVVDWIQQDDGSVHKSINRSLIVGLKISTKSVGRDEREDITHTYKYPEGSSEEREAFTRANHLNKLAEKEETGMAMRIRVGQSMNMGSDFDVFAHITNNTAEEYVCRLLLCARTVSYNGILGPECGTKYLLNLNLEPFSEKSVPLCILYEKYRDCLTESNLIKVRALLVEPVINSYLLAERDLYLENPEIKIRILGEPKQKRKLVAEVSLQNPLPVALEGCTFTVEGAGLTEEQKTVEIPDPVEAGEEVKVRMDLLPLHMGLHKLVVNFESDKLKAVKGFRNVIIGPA
Excerpt: Earlier disclosures had reported the synthesis and evaluation of a promising peptidic inhibitor of human TG2, (SEQ ID NO:1) Ac-Pro-Gln-Pro-DON-Leu-Pro-Phe-NH2. We now disclose a truncated analog that is easier to synthesize and has greater activity.
Characterization: (SEQ ID NO:3) Ac-Pro-DON-Leu-Pro-Phe-NH2 was characterized by the method of Hausch et al. (Hausch et al., Chem. Biol. (2003) 10, 225-231).

[2] = molecular target: T1, human TG2; conditions: cited from earlier work
[3] = molecular target: T2, tumor associated TG2 (Mus musculus, UniProt P21981); test: Intracranial DBT tumor associated TG2 activity after dosing; type: in vivo, mice
T2 construct: from tissue; host or cells: intracranial DBT glioblastoma tumours from dosed mice
T2 sequence (P21981 1-686): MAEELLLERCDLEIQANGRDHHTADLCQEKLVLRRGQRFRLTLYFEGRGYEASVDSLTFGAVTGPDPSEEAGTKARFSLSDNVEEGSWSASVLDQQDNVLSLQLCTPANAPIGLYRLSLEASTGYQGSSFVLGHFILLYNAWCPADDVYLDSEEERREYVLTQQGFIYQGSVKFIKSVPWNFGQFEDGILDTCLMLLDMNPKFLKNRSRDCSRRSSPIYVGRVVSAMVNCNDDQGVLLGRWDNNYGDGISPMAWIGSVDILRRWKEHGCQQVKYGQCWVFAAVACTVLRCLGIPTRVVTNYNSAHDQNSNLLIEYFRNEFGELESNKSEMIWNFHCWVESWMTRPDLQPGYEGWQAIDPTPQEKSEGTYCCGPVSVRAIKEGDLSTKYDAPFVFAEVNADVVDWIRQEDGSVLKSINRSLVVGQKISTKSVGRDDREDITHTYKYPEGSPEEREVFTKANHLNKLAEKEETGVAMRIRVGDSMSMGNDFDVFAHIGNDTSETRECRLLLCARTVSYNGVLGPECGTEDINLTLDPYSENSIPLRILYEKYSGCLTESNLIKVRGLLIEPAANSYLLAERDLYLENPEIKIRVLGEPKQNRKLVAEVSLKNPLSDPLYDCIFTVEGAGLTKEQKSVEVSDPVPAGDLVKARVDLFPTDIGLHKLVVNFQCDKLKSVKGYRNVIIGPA
Experimental: To test whether therapeutic doses of KCC009 can modulate TG2 activity associated with intracranial glioblastomas, DBT tumors were injected intracranially in mice. As judged by MRI, the mice consistently established intracranial tumors after 7-10 days following injections, which, if untreated, caused death by 2-3 weeks. In an initial dose-finding experiment, cohorts of mice were administered 4 daily doses of vehicle or KCC009 (12.5 mg/kg, 25 mg/kg and 50 mg/kg) starting on day 11 after intra-cranial injections. Twenty-four hours later, the mice were sacrificed and tumors analyzed. […] Based on these findings a dose of 35 mg/kg was used for subsequent experiments in mice harboring intracranial DBT tumors.
As summarized in Table 4, KCC009 treatment led to significant suppression of TG2 activity after 15 min, whereas enzyme activity recovers fully by 24 h. Both uninhibited and inhibited activity levels are consistent with similar measurements in the small intestinal mucosa (data not shown).

[4] = molecular target: T3, recombinant human tissue transglutaminase (Homo sapiens, UniProt P21980); test: tTGase inhibition assay, residual activity by glutamate dehydrogenase coupled assay; type: biochemical; conditions: dihydroisoxazoles, Table 1
T3 construct: made in house
T3 sequence (P21980 1-687): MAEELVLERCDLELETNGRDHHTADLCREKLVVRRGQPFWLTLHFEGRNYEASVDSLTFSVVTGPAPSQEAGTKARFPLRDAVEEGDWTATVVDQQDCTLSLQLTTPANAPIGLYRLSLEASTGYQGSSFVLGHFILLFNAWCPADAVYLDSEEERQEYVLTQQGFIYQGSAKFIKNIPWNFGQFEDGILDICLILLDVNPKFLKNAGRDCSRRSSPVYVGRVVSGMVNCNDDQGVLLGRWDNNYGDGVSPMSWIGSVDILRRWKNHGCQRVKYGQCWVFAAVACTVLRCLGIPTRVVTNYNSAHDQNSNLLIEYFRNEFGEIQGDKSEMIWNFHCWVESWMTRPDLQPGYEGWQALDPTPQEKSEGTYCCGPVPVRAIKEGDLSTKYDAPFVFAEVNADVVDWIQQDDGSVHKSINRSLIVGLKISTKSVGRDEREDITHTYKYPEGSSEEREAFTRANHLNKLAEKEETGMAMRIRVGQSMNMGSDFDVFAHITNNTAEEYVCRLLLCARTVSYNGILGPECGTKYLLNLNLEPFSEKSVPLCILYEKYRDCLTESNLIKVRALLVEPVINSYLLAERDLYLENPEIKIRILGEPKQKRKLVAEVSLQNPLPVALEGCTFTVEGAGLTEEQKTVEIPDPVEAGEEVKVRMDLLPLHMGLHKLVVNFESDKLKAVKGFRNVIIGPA

[5] = molecular target: T4, bovine epidermal transglutaminase (Bos taurus, UniProt A6QP57); conditions: cited from earlier work
T4 sequence (A6QP57 1-691): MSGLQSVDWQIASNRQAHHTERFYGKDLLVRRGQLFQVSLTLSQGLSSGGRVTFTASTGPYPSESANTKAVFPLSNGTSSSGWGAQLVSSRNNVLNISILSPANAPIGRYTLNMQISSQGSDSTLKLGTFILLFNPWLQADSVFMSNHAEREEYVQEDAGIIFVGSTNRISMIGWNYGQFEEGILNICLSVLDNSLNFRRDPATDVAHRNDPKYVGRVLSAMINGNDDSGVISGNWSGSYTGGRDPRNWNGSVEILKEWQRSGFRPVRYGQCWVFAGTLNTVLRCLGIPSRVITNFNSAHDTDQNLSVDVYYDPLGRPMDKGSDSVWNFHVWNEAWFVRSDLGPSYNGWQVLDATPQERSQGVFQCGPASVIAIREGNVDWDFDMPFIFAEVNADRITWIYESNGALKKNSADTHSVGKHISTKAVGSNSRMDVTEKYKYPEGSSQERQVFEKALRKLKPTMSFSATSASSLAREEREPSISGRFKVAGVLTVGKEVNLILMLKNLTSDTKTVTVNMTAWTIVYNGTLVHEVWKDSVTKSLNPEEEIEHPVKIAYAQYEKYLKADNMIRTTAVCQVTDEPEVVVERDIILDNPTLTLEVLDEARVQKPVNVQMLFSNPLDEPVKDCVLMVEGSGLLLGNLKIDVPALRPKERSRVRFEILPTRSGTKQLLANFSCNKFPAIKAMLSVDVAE

[6] = molecular target: T5, human TG2 (tissue transglutaminase, transglutaminase 2) (human, UniProt P21980 1-687, limits assumed); test: TG2 enzyme inactivation kinetics by the method of Hausch et al.
T5 construct: also called tTGase; tTG
T5 sequence (looked up): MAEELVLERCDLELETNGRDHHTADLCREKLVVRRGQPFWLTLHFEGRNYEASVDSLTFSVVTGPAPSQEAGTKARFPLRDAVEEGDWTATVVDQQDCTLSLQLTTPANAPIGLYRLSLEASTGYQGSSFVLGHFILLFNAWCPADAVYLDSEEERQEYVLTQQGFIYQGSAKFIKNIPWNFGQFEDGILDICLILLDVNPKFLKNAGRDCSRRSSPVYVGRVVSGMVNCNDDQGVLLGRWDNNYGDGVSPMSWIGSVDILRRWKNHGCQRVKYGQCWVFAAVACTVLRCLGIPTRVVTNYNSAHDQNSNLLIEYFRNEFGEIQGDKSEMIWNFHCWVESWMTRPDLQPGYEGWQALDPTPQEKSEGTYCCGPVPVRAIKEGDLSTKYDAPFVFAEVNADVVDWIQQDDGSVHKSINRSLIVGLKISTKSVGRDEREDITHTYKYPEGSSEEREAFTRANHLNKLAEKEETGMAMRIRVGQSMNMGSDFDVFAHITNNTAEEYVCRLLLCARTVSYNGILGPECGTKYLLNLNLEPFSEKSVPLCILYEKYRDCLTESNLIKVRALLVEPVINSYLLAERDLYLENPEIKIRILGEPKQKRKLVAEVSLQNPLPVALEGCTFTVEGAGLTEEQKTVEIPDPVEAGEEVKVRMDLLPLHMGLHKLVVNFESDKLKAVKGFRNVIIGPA

ki [1]: 0.5 min⁻¹ | ki/KI [1]: 8.3
Molecule: CC(=O)N1CCC[C@H]1C(=O)N[C@H](CCC(=O)C=[N+]=[N-])C(=O)N[C@@H](CC(C)C)C(=O)N1CCC[C@H]1C(=O)N[C@@H](Cc1ccccc1)C(N)=O [Ac-Pro-DON-Leu-Pro-Phe-NH2] (Ac-P[X2]LPF-NH2)

Molecule: CC(=O)CSc1n(C)c(C)c(C)[n+]1C.[Cl-] [L682777]
inhibition of human TG2 [2]: inhibits human TG2

Molecule: O=NN(CCCl)C(=O)NCCCl [BCNU, reference compound]
TG2 activity-BCNU alone ([3]; 15 min after last of four daily doses): 2.1 ± 0.2 (n = 4) nmol/h/mg protein | TG2 activity-BCNU alone ([3]; 24 h after last of four daily doses): 2.2 ± 0.3 (n = 2) nmol/h/mg protein

kinh [4]: 1.4 min⁻¹
Molecule: O=C(N[C@@H](Cc1ccccc1)C(=O)NCC1CC(Br)=NO1)OCc1ccccc1 (stereo partly drawn) [Compound 49, {(S)-1-[(3-Bromo-4,5-dihydro-isoxazol-5-ylmethyl)-carbamoyl]-2-phenyl-ethyl}-carbamic acid benzyl ester]
inhibition of bovine epidermal transglutaminase [5]: is an inhibitor

Ki [6]: 60 nM | ki (inactivation rate constant) [6]: 0.5 min⁻¹
B1: Ac-Pro-DON-Leu-Pro-Phe-NH2 (DON=6-diazo-5-oxo-norleucine) (peptide)
peptide: Ac-P[DON]LPF-NH2
SMILES: CC(=O)N1CCC[C@H]1C(=O)N[C@@H](CCC(=O)C=[N+]=[N-])C(=O)N[C@@H](CC(C)C)C(=O)N1CCC[C@H]1C(=O)N[C@@H](Cc1ccccc1)C(N)=O
notes: Position 2 is the non-natural residue DON; also called truncated analog of Ac-Pro-Gln-Pro-DON-Leu-Pro-Phe-NH2
